Test results from ChEMBL document CHEMBL2203174, “SAR Development of Lysine-Based Irreversible Inhibitors of Transglutaminase 2 for Huntington's Disease” (ACS Med Chem Lett, 2012).
In brackets after ≈: the same amount, converted by molar mass. Peptide text beside a SMILES is read from it. * marks the point of attachment. Cbz = O=C(OCc1ccccc1)*; Acryloyl = C=CC(=O)*; OtBu = CC(C)(C)O*

How the values were obtained:
[1] = Kinetic solubility of the compound in PBS at pH 7.4 by LC-UV analysis; assay type: physicochemical; settings: read-out: Kinetic_solubility
[2] = Half life in human plasma at 1 uM by LC-MS/MS analysis; assay type: ADME, cell-free
[3] = Apparent permeability of the compound across apical to basolateral side in wild type MDCK cells at 10 uM; assay type: ADME, cell-based, Canis lupus familiaris; settings: dog
[4] = Half life in mouse plasma at 1 uM by LC-MS/MS analysis; assay type: ADME, cell-free
[5] = Intrinsic clearance in human liver microsomes at 1 uM by LC-MS/MS analysis; assay type: ADME, Microsome; settings: read-out: CLH
[6] = molecular target: T1, Protein-glutamine gamma-glutamyltransferase K (Homo sapiens, UniProt P22735); assay: Inhibition of transglutaminase 1
T1 sequence (P22735 whole entry): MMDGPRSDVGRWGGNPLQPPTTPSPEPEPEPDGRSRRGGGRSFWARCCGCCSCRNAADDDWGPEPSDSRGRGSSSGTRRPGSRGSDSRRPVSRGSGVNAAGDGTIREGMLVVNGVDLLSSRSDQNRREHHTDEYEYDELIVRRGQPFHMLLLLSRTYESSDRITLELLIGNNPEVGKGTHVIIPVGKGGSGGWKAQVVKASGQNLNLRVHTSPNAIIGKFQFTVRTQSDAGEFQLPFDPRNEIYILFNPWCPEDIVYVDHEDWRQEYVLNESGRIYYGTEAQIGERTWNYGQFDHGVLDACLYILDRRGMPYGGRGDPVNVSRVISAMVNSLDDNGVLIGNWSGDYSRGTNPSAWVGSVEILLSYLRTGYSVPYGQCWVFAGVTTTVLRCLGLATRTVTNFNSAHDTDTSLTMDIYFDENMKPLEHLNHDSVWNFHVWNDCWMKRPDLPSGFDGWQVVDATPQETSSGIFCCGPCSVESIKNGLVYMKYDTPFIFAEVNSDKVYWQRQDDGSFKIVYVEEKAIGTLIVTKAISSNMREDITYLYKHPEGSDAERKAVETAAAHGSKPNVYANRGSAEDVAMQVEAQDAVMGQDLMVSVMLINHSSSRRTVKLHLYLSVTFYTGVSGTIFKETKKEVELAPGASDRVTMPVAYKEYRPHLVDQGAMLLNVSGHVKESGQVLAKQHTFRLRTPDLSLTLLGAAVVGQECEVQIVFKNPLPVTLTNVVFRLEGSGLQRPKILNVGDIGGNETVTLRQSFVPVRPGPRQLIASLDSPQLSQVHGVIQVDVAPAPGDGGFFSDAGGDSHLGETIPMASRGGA

MDR1 = assay: Efflux ratio of permeability in MDCK cells expressing MDR1 at 10 uM; assay type: ADME, cell-based, Canis lupus familiaris; settings: dog
[7] = Half life in mouse liver microsomes; assay type: ADME, Microsome
[8] = molecular target: T2, Protein-glutamine gamma-glutamyltransferase 2 (Mus musculus, UniProt P21981); assay: Inhibition of mouse transglutaminase 2
T2 sequence (P21981 whole entry): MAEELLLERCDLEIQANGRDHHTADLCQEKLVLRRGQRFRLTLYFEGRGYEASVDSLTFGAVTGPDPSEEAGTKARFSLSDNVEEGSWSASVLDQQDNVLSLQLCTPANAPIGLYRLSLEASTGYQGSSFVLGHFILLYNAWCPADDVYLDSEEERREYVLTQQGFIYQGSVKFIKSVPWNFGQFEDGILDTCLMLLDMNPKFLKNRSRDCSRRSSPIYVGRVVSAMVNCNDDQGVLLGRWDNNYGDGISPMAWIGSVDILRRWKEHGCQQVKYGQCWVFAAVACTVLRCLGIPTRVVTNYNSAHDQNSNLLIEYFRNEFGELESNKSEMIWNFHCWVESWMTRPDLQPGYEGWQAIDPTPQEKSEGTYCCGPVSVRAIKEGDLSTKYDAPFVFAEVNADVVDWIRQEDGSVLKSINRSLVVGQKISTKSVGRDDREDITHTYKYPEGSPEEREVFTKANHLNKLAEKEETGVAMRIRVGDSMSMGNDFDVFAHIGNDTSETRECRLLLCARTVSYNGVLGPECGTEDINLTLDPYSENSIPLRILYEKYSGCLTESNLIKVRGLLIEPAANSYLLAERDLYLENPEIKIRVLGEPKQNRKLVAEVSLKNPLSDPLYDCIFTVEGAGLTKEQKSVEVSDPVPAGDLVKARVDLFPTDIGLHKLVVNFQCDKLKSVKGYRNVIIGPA

[9] = Apparent permeability of the compound across apical to basolateral side in human Caco2 cells; assay type: ADME, cell-based; settings: Caco-2
[10] = Apparent permeability of the compound across basolateral to apical side in human Caco2 cells; assay type: ADME, cell-based; settings: Caco-2
[11] = Aqueous solubility of the compound; assay type: physicochemical; settings: buffer
[12] = Ratio of IC50 for mouse transglutaminase 2 to IC50 for human transglutaminase 2
[13] = Intrinsic clearance in mouse liver microsomes at 1 uM by LC-MS/MS analysis; assay type: ADME, Microsome; settings: read-out: CLH

Row | solubility kinetic [1] [µg/mL] | half-life at 1 µM [2] [h] | Papp A→B at 10 µM [3] [×10⁻⁶ cm/s] | half-life at 1 µM [4] [h] | microsomal CLint at 1 µM [5] [µL/min/mg] | IC50 [6] [µM] | efflux ratio at 10 µM (MDR1) | half-life [7] [min] | IC50 [8] [µM] | Papp A→B [9] [×10⁻⁶ cm/s] | Papp B→A [10] [×10⁻⁶ cm/s] | solubility [11] [µg/mL] | Ratio IC50 [12] | microsomal CLint at 1 µM [13] [µL/min/mg] | SMILES
1 | 870 (≈ 1820 µM) | > 24 | 14.2 | > 24 | > 1390 | 15 | 118 |  |  |  |  |  |  |  | C=CC(=O)NCCCC[C@H](NC(=O)Cc1ccccc1)C(=O)N1CCN(c2cccc(C)n2)CC1
2 |  |  |  |  |  | > 80 |  | 7 | 6.2 | 7.5 | 25 | 1490 (≈ 3330 µM) |  |  | C=CC(=O)NCCCC[C@H](NC(=O)OCc1ccccc1)C(=O)NCC(=O)OC(C)(C)C (Cbz-Lys(Acryloyl)-Gly-OtBu)
3 | 60 (≈ 117 µM) | > 8 | 30.3 | > 8 | > 1390 | 12.9 | 7.1 |  |  |  |  |  | 2 | > 1390 | C=CC(=O)NCCCC[C@H](NC(=O)OCc1ccccc1)C(=O)N1CCN(c2ccccc2Cl)CC1
